# Reference: the supplement of paper PMC10307832
# Columns and labels:
# Experiment in all cases: relative viability (nuclei count vs DMSO), 5 days (fraction); higher = more cells survive
# NCI-H1563 = system: NCI-H1563
# Method in brief: (§1)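 Lung cancer cell lines, seeded in 1536-well plates, were treated the following day by pin tool with a single drug or with five library-drug doses (not always all listed) in √10 steps on top of a fixed anchor-drug dose. Cells were fixed and nuclei stained in one step after 5 days, and nuclei were counted. Relative viability is the nuclei count for treated wells divided by that for vehicle wells, reported as medians of duplicate plates.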
# NCI-H3122 = system: NCI-H3122
# Method in brief: as §1
# LC-2-ad = system: LC-2-ad
# Method in brief: as §1
# HARA = system: HARA
# Method in brief: as §1
# NCI-H647 = system: NCI-H647
# Method in brief: as §1
# NCI-H1666 = system: NCI-H1666
# Method in brief: as §1
# NCI-H1944 = system: NCI-H1944
# Method in brief: as §1
# NCI-H1734 = system: NCI-H1734
# Method in brief: as §1
# CAL-12T = system: CAL-12T
# Method in brief: as §1
# NCI-H838 = system: NCI-H838
# Method in brief: as §1
# NCI-H522 = system: NCI-H522
# Method in brief: as §1
# H3255 = system: H3255
# Method in brief: as §1
# COR-L 105 = system: COR-L 105
# Method in brief: as §1
# SK-LU-1 = system: SK-LU-1
# Method in brief: as §1
# NCI-H1993 = system: NCI-H1993
# Method in brief: as §1
# HCC-366 = system: HCC-366
# Method in brief: as §1
# NCI-H1975 = system: NCI-H1975
# Method in brief: as §1
# NCI-H1395 = system: NCI-H1395
# Method in brief: as §1
# PC-14 = system: PC-14
# Method in brief: as §1
# LU99A = system: LU99A
# Method in brief: as §1
# HCC-15 = system: HCC-15
# Method in brief: as §1
# PC-3 [JPC-3] = system: PC-3 [JPC-3]
# Method in brief: as §1
smiles,measurement,setting,value
COCC1(CO)C(=O)C2CCN1CC2 (configuration not stated) [PRIMA-1MET] + Nc1nc2[nH]cc(CCc3ccc(C(=O)N[C@@H](CCC(=O)O)C(=O)O)cc3)c2c(=O)[nH]1 [Pemetrexed] (partner 0.2 µM),relative viability,NCI-H1563; first compound 0.2 µM,0.882
same,relative viability,NCI-H1563; first compound 0.6325 µM,0.935
same,relative viability,NCI-H1563; first compound 6.325 µM,0.77
same,relative viability,NCI-H1563; first compound 20 µM,0.887
same,relative viability,NCI-H3122; first compound 0.2 µM,0.18
same,relative viability,NCI-H3122; first compound 0.6325 µM,0.199
same,relative viability,NCI-H3122; first compound 2 µM,0.206
same,relative viability,NCI-H3122; first compound 6.325 µM,0.192
same,relative viability,NCI-H3122; first compound 20 µM,0.206
same,relative viability,LC-2-ad; first compound 0.2 µM,0.26
same,relative viability,LC-2-ad; first compound 0.6325 µM,0.301
same,relative viability,LC-2-ad; first compound 2 µM,0.268
same,relative viability,LC-2-ad; first compound 6.325 µM,0.273
same,relative viability,LC-2-ad; first compound 20 µM,0.259
same,relative viability,HARA; first compound 0.2 µM,0.278
same,relative viability,HARA; first compound 0.6325 µM,0.232
same,relative viability,HARA; first compound 2 µM,0.209
same,relative viability,HARA; first compound 6.325 µM,0.243
same,relative viability,HARA; first compound 20 µM,0.247
same,relative viability,NCI-H647; first compound 0.2 µM,0.19
same,relative viability,NCI-H647; first compound 0.6325 µM,0.152
same,relative viability,NCI-H647; first compound 2 µM,0.19
same,relative viability,NCI-H647; first compound 6.325 µM,0.173
same,relative viability,NCI-H647; first compound 20 µM,0.124
same,relative viability,NCI-H1666; first compound 0.2 µM,0.949
same,relative viability,NCI-H1666; first compound 0.6325 µM,0.824
same,relative viability,NCI-H1666; first compound 2 µM,0.742
same,relative viability,NCI-H1666; first compound 6.325 µM,0.793
same,relative viability,NCI-H1666; first compound 20 µM,0.814
same,relative viability,NCI-H1944; first compound 0.2 µM,0.738
same,relative viability,NCI-H1944; first compound 0.6325 µM,0.555
same,relative viability,NCI-H1944; first compound 2 µM,0.535
same,relative viability,NCI-H1944; first compound 6.325 µM,0.519
same,relative viability,NCI-H1944; first compound 20 µM,0.655
same,relative viability,NCI-H1734; first compound 0.2 µM,0.403
same,relative viability,NCI-H1734; first compound 0.6325 µM,0.416
same,relative viability,NCI-H1734; first compound 2 µM,0.433
same,relative viability,NCI-H1734; first compound 6.325 µM,0.407
same,relative viability,NCI-H1734; first compound 20 µM,0.0543
same,relative viability,CAL-12T; first compound 0.2 µM,1.18
same,relative viability,CAL-12T; first compound 0.6325 µM,1.19
same,relative viability,CAL-12T; first compound 2 µM,1.19
same,relative viability,CAL-12T; first compound 6.325 µM,1.36
same,relative viability,CAL-12T; first compound 20 µM,0.13
same,relative viability,NCI-H838; first compound 0.2 µM,0.247
same,relative viability,NCI-H838; first compound 0.6325 µM,0.249
same,relative viability,NCI-H838; first compound 2 µM,0.261
same,relative viability,NCI-H838; first compound 6.325 µM,0.264
same,relative viability,NCI-H838; first compound 20 µM,0.174
same,relative viability,NCI-H522; first compound 0.2 µM,0.789
same,relative viability,NCI-H522; first compound 0.6325 µM,0.927
same,relative viability,NCI-H522; first compound 2 µM,1.01
same,relative viability,NCI-H522; first compound 6.325 µM,0.946
same,relative viability,NCI-H522; first compound 20 µM,0.423
same,relative viability,H3255; first compound 0.2 µM,0.634
same,relative viability,H3255; first compound 0.6325 µM,0.458
same,relative viability,H3255; first compound 2 µM,0.601
same,relative viability,H3255; first compound 6.325 µM,0.567
same,relative viability,H3255; first compound 20 µM,0.534
same,relative viability,COR-L 105; first compound 0.2 µM,1.3
same,relative viability,COR-L 105; first compound 0.6325 µM,1.17
same,relative viability,COR-L 105; first compound 2 µM,1.22
same,relative viability,COR-L 105; first compound 6.325 µM,1.1
same,relative viability,COR-L 105; first compound 20 µM,0.229
same,relative viability,SK-LU-1; first compound 0.2 µM,1.01
same,relative viability,SK-LU-1; first compound 0.6325 µM,1.12
same,relative viability,SK-LU-1; first compound 2 µM,1.01
same,relative viability,SK-LU-1; first compound 6.325 µM,0.955
same,relative viability,SK-LU-1; first compound 20 µM,0.652
same,relative viability,NCI-H1993; first compound 0.2 µM,0.592
same,relative viability,NCI-H1993; first compound 2 µM,0.592
same,relative viability,NCI-H1993; first compound 6.325 µM,0.534
same,relative viability,NCI-H1993; first compound 20 µM,0.557
same,relative viability,HCC-366; first compound 0.2 µM,0.187
same,relative viability,HCC-366; first compound 0.6325 µM,0.203
same,relative viability,HCC-366; first compound 2 µM,0.156
same,relative viability,HCC-366; first compound 6.325 µM,0.184
same,relative viability,HCC-366; first compound 20 µM,0.0889
same,relative viability,NCI-H1975; first compound 0.2 µM,0.31
same,relative viability,NCI-H1975; first compound 0.6325 µM,0.266
same,relative viability,NCI-H1975; first compound 2 µM,0.28
same,relative viability,NCI-H1975; first compound 6.325 µM,0.292
same,relative viability,NCI-H1975; first compound 20 µM,0.282
same,relative viability,NCI-H1395; first compound 0.2 µM,0.842
same,relative viability,NCI-H1395; first compound 2 µM,0.771
same,relative viability,NCI-H1395; first compound 6.325 µM,0.881
same,relative viability,NCI-H1395; first compound 20 µM,0.154
same,relative viability,PC-14; first compound 0.2 µM,0.124
same,relative viability,PC-14; first compound 0.6325 µM,0.148
same,relative viability,PC-14; first compound 2 µM,0.114
same,relative viability,PC-14; first compound 6.325 µM,0.148
same,relative viability,PC-14; first compound 20 µM,0.0292
same,relative viability,LU99A; first compound 0.2 µM,0.191
same,relative viability,LU99A; first compound 0.6325 µM,0.161
same,relative viability,LU99A; first compound 2 µM,0.201
same,relative viability,LU99A; first compound 6.325 µM,0.179
same,relative viability,LU99A; first compound 20 µM,0.187
same,relative viability,HCC-15; first compound 0.2 µM,0.213
same,relative viability,HCC-15; first compound 0.6325 µM,0.214
same,relative viability,HCC-15; first compound 2 µM,0.212
same,relative viability,HCC-15; first compound 6.325 µM,0.21
same,relative viability,HCC-15; first compound 20 µM,0.217
same,relative viability,PC-3 [JPC-3]; first compound 0.2 µM,1.06
same,relative viability,PC-3 [JPC-3]; first compound 0.6325 µM,0.975
same,relative viability,PC-3 [JPC-3]; first compound 2 µM,1.04
same,relative viability,PC-3 [JPC-3]; first compound 6.325 µM,1.14
same,relative viability,PC-3 [JPC-3]; first compound 20 µM,1.04
